Measurements reported in the SangsterLogP compilation.

Test: method code SF-GLC, from DOI: 10.1584/jpestics.5.553
CC(C)OC(=O)C(C(=O)OC(C)C)=C1SCCS1=O (stereo not given) showed a logP of 1.6.
CCCCCCCOC(=O)C(C(=O)OCCCCCCC)=C1SCCS1 gave a logP of 7.6.
CSC(SC)=C(C(=O)OC(C)C)C(=O)OC(C)C showed a logP of 3.38.
For CCCOC(=O)C(C(=O)OCCC)=C1SCCS1, the logP was 3.38.
In the case of CCOC(=O)C(C(=O)OCC)=C1SCCS1, the logP is reported as 2.45.
CCCCOC(=O)C(C(=O)OCCCC)=C1SCCS1 showed a logP of 4.6.
Work on CC(C)(C)OC(=O)C(C(=O)OC(C)(C)C)=C1SCCS1 yielded a logP of 4.01.
With COC(=O)C(C(=O)OC)=C1SCCS1 the logP was 1.51.
CCOC(=O)C(C(=O)OC(C)C)=C1SCCS1 gave a logP of 2.9.
In the case of CCCCCOC(=O)C(C(=O)OCCCCC)=C1SCCS1, the logP is reported as 5.6.
